Source: patent publication US20200261576A1, “APOPTOTIC CELL-MEDIATED INDUCTION OF ANTIGEN SPECIFIC REGULATORY T-CELLS FOR THE THERAPY OF AUTOIMMUNE DISEASES IN ANIMALS AND HUMANS” (The United States of America, as represented by the …, priority 2013, published 2020)

Experiments:
[1] = system: SJL mice; assay: Prevention of EAE in SJL mice (treatment before immunization); type: in vivo
Description: Antibodies used for in vivo. Anti-CD4 (clone Gk1.5), anti-CD8 antibody (clone 53-6.72), anti-TGFβ antibody (clone ID11) and mouse IgG1 (clone MOPC-21) were purchased from Bio X cell. Anti-CD20 antibody (clone 5D2) was a gift from Genentech. T cell depletion studies in EAE disease models. For EAE prevention studies SJL/J mice were either untreated or treated with CD4− (100 μg/mouse) and CD8− (50 μg/mouse) specific antibody (T cell depletion antibody). Some mice were immediately injected i.p. with pPLP or pOVA (25 μg/mouse) or PBS every other day for 16 days. All mice were immunized with pPLP and CFA (day 0). For EAE treatment studies, SJL mice were treated with CD4- and CD8-specific antibody and 5 μg of pPLP, pOVA or PBS i.p. every other day from day 12 to day 26 following immunization with pPLP (day 0). For EAE prevention studies, SJL mice were treated with CD4- and CD8-specific antibody at day −21, and 25 μg of pPLP, pOVA or PBS i.p. every other day from day −18 to day −2 before immunization with pPLP (day 0). In C57BL/6 mice, same T cell depletion regimen was utilized but pMOG (10 μg mouse) was administered via i.p. In some mice, anti-TGFβ or isotype control antibody (mIgG1) (200 μg/mice each day) were injected i.p. one day after T cell depletion. […] Mice were monitored for clinical score of disease and sacrificed at indicated time points. […]

[2] = system: splenocytes; assay: Antigen-recall T cell proliferation and cytokine production of splenocytes from SJL EAE mice; type: cell-based; conditions: therapy model; splenocytes restimulated with pPLP
Description: Cytokine assays. Splenocytes were cultured at 37° C. in 5% CO2 for 2-3 days with either soluble CD3-specific antibody (anti-CD3) (0.5 μg/ml) or MT (heat-killed M. tuberculosis, H37RA, DIFCO) (50 μg/ml) or peptides (pMOG, pPLP) (0-50 μg/ml as indicated). Cytokines were quantified in culture supernatants by ELISA; TNF-α, IL-6, and IFN-γ (BioLegend) and IL-17 (eBioscience). EAE induction, scoring, analysis and in vitro cell cultures. Peptide-induced EAE was induced in SJL mice and C57BL/6 mice as previously reported^11,20. Individual mice were observed daily and clinical scores were assessed on a 0-5 scale as follows: 0, no abnormality; 1, limp tail or hind limb weakness; 2, limp tail and hind limb weakness; 3, hind limb paralysis; 4, hind limb paralysis and forelimb weakness; and 5, moribund. […] Radioactive incorporation was counted using a flatbed β-counter (Wallac). […]

Substance: proteolipid protein peptide PLP139-151 (HSLGKWLGHPDKF; listed as Mus musculus)
- EAE clinical disease, prevention [1]: failed to prevent EAE
- pPLP-specific T cell proliferation and inflammatory cytokine production [2]: no reduction
